This passage reports IC50 results from article PMC6407917, “Identification of GSK3186899/DDD853651 as a Preclinical Development Candidate for the Treatment of Visceral Leishmaniasis” (Journal of Medicinal Chemistry, 2018).

The term IC50 denotes the point on the concentration scale where inhibition reaches its midpoint.

Targets include AKT2 (Homo sapiens, UniProt P31751); ARAF (Homo sapiens, UniProt P10398); CDC42BPB (Homo sapiens, UniProt Q9Y5S2); CSNK1E (Homo sapiens, UniProt P49674); IRAK3 (Homo sapiens, UniProt Q9Y616); MAP2K4 (Homo sapiens, UniProt P45985); MAP3K3 (Homo sapiens, UniProt Q99759); MAP3K7 (Homo sapiens, UniProt O43318); MAP4K4 (Homo sapiens, UniProt O95819); MAPK3 (Homo sapiens, UniProt P27361); MARK4 (Homo sapiens, UniProt Q96L34); MKNK1 (Homo sapiens, UniProt Q9BUB5); OXSR1 (Homo sapiens, UniProt O95747); PRKCA (Homo sapiens, UniProt P17252); PRKX (Homo sapiens, UniProt P51817); RPS6KB1 (Homo sapiens, UniProt P23443); SIK2 (Homo sapiens, UniProt Q9H0K1); TAOK1 (Homo sapiens, UniProt Q7L7X3); YES1 (Homo sapiens, UniProt P07947); YWHAG (Homo sapiens, UniProt P61981); YWHAZ (Homo sapiens, UniProt P63104).

Common to all, as to assay: biochemical
Holding throughout (design): species or system HEK293/K-562/placenta mixed human extract; Kinobeads chemoproteomic competition binding, quantified by TMT LC-MS/MS, dose response up to 20 uM

Chain of YES1 (P07947 whole entry): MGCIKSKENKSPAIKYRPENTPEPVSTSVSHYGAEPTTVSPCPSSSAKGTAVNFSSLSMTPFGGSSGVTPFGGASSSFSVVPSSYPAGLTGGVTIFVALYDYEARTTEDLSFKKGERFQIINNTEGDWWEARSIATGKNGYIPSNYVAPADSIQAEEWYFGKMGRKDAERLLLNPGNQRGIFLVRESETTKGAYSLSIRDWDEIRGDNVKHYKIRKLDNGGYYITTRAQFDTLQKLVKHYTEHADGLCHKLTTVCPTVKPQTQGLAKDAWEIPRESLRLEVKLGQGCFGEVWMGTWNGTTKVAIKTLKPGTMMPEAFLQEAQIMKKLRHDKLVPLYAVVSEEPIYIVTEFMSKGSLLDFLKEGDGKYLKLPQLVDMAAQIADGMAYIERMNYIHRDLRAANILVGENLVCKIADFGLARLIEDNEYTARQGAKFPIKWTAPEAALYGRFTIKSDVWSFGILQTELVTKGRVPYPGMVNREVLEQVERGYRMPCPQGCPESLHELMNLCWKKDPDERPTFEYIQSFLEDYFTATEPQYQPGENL
Chain of MAPK3 (P27361 whole entry): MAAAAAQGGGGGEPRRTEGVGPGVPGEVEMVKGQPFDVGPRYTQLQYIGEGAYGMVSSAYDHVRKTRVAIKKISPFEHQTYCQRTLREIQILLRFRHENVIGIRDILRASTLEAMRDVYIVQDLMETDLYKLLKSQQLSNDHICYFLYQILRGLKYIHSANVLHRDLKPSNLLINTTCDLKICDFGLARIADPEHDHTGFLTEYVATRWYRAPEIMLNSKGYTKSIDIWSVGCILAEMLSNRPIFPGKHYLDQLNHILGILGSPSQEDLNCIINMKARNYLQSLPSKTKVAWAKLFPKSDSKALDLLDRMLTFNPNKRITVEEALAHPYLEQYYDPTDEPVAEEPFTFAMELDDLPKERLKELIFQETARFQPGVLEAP
Chain of MAP3K7 (O43318 whole entry): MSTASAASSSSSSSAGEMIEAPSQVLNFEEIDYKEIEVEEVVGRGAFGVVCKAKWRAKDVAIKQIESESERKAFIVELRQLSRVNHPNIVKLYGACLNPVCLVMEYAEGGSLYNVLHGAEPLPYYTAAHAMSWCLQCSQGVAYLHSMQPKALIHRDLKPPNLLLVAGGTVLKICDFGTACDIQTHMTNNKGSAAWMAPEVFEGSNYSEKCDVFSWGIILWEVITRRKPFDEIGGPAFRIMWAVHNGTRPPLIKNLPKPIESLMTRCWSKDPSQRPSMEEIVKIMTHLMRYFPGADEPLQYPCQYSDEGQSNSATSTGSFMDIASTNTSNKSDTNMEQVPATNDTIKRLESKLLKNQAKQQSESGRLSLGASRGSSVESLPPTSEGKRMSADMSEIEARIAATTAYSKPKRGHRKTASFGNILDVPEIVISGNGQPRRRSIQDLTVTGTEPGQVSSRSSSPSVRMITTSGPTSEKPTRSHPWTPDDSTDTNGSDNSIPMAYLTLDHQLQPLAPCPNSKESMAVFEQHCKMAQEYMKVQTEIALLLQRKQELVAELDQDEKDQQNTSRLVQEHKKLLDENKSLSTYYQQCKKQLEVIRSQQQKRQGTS
Chain of IRAK3 (Q9Y616 whole entry): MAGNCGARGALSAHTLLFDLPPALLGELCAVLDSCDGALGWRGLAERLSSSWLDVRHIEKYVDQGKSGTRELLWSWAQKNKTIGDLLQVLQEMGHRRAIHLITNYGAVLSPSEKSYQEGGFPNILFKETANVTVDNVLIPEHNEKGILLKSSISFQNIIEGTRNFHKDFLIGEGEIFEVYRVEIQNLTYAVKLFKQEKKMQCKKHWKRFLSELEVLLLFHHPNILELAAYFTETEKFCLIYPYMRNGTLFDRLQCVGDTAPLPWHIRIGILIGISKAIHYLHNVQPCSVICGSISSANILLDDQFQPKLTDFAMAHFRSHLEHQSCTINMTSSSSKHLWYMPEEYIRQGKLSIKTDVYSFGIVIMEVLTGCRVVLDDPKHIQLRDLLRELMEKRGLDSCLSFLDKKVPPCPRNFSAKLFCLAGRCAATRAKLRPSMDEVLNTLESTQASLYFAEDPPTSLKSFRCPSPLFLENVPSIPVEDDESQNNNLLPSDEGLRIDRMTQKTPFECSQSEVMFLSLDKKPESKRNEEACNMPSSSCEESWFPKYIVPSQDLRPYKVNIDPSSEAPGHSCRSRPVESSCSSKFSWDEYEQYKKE
Chain of PRKX (P51817 whole entry): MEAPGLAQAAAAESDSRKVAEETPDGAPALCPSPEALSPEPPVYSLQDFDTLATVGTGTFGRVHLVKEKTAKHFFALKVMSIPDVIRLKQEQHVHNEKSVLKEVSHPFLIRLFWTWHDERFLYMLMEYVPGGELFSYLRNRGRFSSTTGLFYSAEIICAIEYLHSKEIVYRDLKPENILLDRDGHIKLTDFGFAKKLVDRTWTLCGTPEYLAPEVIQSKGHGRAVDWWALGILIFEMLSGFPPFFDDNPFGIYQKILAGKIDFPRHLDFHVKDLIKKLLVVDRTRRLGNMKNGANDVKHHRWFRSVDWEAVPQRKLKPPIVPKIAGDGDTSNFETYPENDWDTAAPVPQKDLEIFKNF
Chain of RPS6KB1 (P23443 whole entry): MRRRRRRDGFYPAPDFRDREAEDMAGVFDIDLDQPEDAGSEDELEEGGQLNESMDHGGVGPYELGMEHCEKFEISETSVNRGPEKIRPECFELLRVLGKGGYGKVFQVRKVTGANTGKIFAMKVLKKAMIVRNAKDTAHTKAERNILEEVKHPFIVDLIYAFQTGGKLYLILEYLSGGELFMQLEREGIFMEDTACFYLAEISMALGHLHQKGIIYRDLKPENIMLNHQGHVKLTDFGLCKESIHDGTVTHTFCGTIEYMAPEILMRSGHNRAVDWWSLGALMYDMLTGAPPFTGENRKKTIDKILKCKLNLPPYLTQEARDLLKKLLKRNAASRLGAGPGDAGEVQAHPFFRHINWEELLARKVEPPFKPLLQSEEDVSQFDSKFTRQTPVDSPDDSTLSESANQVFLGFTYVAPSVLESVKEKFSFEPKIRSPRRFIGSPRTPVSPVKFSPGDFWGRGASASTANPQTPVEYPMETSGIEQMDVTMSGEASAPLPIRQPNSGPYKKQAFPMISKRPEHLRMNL
Chain of MAP3K3 (Q99759 whole entry): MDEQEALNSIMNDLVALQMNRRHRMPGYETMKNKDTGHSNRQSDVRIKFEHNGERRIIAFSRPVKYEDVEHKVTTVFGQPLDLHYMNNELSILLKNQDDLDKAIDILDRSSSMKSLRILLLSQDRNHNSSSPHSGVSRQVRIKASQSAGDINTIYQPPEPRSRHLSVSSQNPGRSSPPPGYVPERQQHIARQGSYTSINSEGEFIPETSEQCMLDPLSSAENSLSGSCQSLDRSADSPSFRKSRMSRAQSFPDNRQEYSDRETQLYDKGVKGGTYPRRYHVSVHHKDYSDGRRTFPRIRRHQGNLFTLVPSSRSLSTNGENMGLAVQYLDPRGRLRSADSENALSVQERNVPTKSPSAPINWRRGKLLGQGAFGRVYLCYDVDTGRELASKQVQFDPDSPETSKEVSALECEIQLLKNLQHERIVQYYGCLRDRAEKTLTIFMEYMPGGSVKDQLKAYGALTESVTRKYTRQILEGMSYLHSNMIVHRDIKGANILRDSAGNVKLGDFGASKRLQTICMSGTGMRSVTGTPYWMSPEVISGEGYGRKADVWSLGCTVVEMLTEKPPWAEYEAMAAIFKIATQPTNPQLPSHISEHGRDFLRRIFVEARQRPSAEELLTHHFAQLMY
Chain of YWHAG (P61981 whole entry): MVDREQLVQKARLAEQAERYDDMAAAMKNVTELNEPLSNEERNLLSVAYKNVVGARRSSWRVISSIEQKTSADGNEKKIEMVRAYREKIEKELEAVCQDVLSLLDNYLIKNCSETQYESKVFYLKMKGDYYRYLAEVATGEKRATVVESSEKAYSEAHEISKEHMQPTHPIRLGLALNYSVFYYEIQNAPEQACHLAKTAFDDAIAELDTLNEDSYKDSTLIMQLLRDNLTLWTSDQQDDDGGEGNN
Chain of CSNK1E (P49674 whole entry): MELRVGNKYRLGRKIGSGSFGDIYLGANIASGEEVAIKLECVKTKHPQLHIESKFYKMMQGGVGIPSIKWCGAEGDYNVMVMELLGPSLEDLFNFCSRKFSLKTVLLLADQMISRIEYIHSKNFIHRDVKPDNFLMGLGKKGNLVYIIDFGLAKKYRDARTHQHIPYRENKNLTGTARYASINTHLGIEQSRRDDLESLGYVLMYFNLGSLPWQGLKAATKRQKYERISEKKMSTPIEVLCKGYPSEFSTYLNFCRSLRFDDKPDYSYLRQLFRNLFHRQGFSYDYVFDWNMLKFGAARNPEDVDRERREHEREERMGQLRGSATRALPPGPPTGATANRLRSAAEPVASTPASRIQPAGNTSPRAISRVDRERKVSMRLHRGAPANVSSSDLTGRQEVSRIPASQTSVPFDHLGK

Consider `COc1ccccc1-c1n[nH]c2nc(N[C@H]3CC[C@H](NS(=O)(=O)CCC(F)(F)F)CC3)nc(OC)c12` [compound 31, 3,3,3-Trifluoro-N-(trans-4-((4-methoxy-3-(2-methoxyphenyl)-1H-pyrazolo[3,4-d]pyrimidin-6-yl)amino)cyclohexyl)propane-1-sulfonamide], for which the IC50 at AKT2 is no less than 20 µM; at ARAF, no less than 20 µM; at CDC42BPB, no less than 20 µM; at CSNK1E it was 7.7 µM; on IRAK3, no less than 20 µM; at MAP2K4 it was no less than 20 µM. For the same compound, the IC50 at MAP3K3, at MAP3K7, at MAP4K4, on MAPK3, at MARK4 and on MKNK1 was no less than 20 µM throughout. In addition, the IC50 is no less than 20 µM at OXSR1; no less than 20 µM on PRKCA; no less than 20 µM on PRKX; no less than 20 µM on RPS6KB1; no less than 20 µM on SIK2; 1.5 µM on TAOK1. The IC50 on YES1, at YWHAG and on YWHAZ was no less than 20 µM each time.
